One assay deals with CAAX prenyl protease 1 (Saccharomyces cerevisiae S288c, UniProt P47154). Nature of the assay: Ste24 protease inhibitors, dose response, biochemical, S. cerevisiae, plate reader, cherry-pick (AID 488815).
The next assay addresses CAAX prenyl protease 2 (Saccharomyces cerevisiae S288c, UniProt Q03530). It is filed as biochemical.
Assay [1] deals with Lysine-specific demethylase 4A (Homo sapiens, UniProt O75164). Nature of the assay: JMJD2A histone demethylase inhibitors, dose response, selectivity assay for GASC-1 inhibitor project, biochemical, DELFIA europium, cherry-picked samples (AID 488840).
Lysine-specific demethylase 4A, sequence (O75164 whole entry): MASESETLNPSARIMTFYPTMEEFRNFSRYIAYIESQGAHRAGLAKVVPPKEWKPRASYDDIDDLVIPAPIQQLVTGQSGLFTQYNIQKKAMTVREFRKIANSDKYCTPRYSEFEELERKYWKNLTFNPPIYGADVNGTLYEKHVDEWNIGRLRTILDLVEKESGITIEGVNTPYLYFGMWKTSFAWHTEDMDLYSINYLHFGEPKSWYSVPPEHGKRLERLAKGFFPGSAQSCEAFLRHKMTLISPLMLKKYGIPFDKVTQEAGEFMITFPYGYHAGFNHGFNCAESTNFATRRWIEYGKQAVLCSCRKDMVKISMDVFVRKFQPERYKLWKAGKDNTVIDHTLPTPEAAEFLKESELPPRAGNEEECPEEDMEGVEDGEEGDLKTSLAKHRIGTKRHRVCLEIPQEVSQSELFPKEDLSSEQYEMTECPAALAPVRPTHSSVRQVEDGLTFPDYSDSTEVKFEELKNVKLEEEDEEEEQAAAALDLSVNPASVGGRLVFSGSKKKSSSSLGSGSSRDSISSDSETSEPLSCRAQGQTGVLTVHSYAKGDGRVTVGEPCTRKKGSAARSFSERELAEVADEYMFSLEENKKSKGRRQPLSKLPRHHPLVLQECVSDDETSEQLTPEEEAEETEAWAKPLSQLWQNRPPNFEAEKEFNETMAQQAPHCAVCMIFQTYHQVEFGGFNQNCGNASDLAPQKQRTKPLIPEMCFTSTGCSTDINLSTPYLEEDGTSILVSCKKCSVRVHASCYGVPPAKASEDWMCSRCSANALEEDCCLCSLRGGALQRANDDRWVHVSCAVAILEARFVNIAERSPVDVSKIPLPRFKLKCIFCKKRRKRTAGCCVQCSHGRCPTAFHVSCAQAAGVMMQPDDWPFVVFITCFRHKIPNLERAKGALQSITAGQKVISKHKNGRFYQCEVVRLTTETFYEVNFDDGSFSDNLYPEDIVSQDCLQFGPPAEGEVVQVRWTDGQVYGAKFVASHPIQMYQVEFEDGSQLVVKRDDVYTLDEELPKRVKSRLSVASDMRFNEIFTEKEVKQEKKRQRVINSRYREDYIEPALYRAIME
In assay [2] the target is T1, Lysine-specific demethylase 4C (Homo sapiens, UniProt Q9H3R0).
T1 sequence (Q9H3R0 whole entry): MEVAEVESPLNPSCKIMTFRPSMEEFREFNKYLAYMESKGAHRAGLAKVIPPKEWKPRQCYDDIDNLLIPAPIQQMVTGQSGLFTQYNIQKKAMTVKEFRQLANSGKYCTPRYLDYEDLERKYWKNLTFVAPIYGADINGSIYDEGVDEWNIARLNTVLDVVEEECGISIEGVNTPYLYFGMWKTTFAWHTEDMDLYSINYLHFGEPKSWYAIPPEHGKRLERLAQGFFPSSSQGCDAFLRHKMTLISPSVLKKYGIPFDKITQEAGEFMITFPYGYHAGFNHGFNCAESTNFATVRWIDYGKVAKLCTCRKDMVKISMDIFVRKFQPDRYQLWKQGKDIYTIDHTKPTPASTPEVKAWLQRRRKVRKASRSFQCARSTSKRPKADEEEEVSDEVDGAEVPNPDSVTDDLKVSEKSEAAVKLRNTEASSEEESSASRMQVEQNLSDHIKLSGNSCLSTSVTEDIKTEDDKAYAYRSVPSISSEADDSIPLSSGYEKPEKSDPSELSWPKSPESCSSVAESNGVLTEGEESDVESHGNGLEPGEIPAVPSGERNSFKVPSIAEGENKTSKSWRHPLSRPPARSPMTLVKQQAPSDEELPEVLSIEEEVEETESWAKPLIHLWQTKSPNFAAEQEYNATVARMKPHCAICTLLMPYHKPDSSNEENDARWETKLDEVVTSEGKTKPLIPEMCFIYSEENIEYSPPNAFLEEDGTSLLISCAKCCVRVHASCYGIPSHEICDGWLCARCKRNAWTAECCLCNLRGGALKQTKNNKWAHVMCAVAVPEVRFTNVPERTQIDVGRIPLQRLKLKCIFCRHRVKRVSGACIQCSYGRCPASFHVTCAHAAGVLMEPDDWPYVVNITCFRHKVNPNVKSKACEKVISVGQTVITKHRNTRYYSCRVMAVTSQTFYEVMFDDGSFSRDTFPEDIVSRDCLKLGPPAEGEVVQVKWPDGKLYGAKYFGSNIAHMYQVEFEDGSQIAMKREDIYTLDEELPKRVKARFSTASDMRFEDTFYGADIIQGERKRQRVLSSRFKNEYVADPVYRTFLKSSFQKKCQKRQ
Nature of the assay: GASC-1 (JMJD2C) histone demethylase inhibitors, dose response, biochemical, DELFIA europium, cherry-picked samples (AID 488835). It is filed as functional.

Another assay deals with Tumor necrosis factor (Homo sapiens, UniProt P01375). Briefly: TNFa-triggered NF-kB activation inhibitors, SAR follow-up, cell-based, revised (AID 2337). It is filed as functional.
Tumor necrosis factor, sequence (P01375 whole entry, the tested form may be a part): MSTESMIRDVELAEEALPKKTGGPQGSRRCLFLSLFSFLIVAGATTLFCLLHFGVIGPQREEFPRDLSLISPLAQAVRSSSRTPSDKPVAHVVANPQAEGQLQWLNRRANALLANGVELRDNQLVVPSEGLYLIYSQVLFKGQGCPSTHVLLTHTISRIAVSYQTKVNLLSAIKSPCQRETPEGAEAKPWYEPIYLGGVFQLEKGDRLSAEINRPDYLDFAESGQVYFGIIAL
The target of assay [3] is Nucleotide-binding oligomerization domain-containing protein 1 (Homo sapiens, UniProt Q9Y239). Nature of the assay: NOD1 signaling inhibitors, SAR follow-up, revised (AID 2333). It is filed as functional.
Nucleotide-binding oligomerization domain-containing protein 1, sequence (Q9Y239 whole entry, the tested form may be a part): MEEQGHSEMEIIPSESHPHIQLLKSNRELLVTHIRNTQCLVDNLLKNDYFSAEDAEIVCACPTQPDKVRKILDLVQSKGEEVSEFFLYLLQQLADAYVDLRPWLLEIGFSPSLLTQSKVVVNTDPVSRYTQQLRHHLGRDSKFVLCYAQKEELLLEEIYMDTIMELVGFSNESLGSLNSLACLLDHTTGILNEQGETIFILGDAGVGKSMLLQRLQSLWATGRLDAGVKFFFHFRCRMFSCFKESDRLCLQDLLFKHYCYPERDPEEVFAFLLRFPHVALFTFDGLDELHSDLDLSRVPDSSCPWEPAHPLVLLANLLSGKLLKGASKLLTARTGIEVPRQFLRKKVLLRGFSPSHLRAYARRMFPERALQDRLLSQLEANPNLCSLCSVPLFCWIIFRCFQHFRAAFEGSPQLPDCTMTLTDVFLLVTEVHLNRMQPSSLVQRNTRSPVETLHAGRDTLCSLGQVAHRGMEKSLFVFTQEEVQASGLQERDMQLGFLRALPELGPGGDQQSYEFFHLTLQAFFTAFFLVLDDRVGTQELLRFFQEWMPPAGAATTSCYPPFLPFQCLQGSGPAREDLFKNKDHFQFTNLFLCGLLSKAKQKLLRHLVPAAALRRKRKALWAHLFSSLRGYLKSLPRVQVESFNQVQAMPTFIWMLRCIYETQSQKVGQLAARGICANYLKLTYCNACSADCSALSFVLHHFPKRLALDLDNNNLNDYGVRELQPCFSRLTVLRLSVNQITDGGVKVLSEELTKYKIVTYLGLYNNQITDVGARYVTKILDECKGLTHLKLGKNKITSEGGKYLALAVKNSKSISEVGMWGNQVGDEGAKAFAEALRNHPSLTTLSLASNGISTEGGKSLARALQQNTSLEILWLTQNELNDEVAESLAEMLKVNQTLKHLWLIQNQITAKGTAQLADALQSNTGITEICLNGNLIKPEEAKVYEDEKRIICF
For the next assay, the system named is HEK293. Nature of the assay: cells. The note with it: Homo sapiens.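 Note: cells exposed to compound for 14 hours overnight before viability readout.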
The target in assay [4] is Nucleotide-binding oligomerization domain-containing protein 2 (Homo sapiens, UniProt Q9HC29). Briefly: PubChem AID 2334. It is filed as functional.
Nucleotide-binding oligomerization domain-containing protein 2, sequence (Q9HC29 whole entry, the tested form may be a part): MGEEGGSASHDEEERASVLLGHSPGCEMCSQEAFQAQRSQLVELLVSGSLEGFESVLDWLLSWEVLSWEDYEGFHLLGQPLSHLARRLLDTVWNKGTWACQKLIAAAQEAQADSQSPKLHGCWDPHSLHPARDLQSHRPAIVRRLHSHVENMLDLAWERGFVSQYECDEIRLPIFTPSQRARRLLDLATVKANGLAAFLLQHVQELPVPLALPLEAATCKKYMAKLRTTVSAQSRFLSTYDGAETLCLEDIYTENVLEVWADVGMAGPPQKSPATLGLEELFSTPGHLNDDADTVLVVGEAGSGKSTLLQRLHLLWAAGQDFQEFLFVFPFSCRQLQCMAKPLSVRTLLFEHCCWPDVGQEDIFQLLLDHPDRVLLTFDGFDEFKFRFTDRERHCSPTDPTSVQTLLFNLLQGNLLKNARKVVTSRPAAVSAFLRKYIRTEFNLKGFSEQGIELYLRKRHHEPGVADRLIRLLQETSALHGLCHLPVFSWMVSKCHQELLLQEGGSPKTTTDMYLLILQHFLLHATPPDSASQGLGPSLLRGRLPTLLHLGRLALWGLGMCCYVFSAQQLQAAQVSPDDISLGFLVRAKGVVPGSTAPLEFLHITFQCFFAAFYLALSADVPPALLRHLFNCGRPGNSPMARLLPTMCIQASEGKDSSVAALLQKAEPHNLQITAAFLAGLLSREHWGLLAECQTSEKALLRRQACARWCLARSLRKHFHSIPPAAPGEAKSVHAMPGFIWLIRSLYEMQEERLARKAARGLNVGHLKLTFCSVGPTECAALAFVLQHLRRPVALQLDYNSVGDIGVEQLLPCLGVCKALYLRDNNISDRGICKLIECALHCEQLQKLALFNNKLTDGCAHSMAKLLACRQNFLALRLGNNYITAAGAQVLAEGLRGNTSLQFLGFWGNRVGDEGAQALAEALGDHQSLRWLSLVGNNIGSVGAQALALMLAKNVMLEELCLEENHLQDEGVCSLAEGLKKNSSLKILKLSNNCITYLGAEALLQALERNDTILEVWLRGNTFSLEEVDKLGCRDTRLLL
The target of assay [5] is T2, Tyrosine-protein phosphatase non-receptor type 7 (Homo sapiens, UniProt P35236).
T2 sequence (P35236 whole entry): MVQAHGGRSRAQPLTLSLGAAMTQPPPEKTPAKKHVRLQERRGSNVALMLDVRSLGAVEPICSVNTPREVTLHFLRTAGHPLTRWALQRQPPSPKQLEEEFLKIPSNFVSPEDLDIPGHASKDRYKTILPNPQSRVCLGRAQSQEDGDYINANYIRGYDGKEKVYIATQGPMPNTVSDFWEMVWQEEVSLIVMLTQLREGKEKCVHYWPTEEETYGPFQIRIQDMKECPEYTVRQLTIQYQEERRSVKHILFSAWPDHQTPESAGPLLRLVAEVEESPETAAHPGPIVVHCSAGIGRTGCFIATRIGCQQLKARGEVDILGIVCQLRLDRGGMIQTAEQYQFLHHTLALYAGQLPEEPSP
It is filed as functional.

For assay [6], the system named is BJ. Nature of the assay: cytotoxicity toward BJ-TERT-LT-ST fibroblasts, dose response, cell-based, RAS-independent, luminescence (AID 1935).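 Note: BJ fibroblasts immortalized with TERT plus LT and ST oncogenes.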 The note with it: Homo sapiens. It is filed as functional.
Assay [7] deals with BJ. Briefly: cells. It is filed as functional, cell-based. The settings on record: Homo sapiens.
Assay [8] deals with T3, Dual specificity protein phosphatase 3 (Homo sapiens, UniProt P51452). Nature of the assay: VHR1 phosphatase inhibitors, primary screen, biochemical, absorbance, uHTS (AID 1654).
T3 sequence (P51452 whole entry): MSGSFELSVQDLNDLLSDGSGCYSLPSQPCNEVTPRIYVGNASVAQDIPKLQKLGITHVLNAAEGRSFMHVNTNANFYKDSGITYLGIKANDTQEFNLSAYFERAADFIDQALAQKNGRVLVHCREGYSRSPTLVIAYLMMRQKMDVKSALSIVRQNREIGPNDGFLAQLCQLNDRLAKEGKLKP
Assay [9] has as its target Heat shock protein HSP 90-alpha (Homo sapiens, UniProt P07900). Format: functional, organism-based.
In assay [10] the test system is BJ. Nature of the assay: cytotoxicity toward BJ-TERT fibroblasts, dose response, cell-based, RAS-independent, luminescence (AID 1933). It is filed as functional. The note with it: Homo sapiens.
The target in assay [11] is T4, Tyrosine-protein phosphatase non-receptor type 22 (Homo sapiens, UniProt Q9Y2R2). It is filed as functional.
T4 sequence (Q9Y2R2 whole entry): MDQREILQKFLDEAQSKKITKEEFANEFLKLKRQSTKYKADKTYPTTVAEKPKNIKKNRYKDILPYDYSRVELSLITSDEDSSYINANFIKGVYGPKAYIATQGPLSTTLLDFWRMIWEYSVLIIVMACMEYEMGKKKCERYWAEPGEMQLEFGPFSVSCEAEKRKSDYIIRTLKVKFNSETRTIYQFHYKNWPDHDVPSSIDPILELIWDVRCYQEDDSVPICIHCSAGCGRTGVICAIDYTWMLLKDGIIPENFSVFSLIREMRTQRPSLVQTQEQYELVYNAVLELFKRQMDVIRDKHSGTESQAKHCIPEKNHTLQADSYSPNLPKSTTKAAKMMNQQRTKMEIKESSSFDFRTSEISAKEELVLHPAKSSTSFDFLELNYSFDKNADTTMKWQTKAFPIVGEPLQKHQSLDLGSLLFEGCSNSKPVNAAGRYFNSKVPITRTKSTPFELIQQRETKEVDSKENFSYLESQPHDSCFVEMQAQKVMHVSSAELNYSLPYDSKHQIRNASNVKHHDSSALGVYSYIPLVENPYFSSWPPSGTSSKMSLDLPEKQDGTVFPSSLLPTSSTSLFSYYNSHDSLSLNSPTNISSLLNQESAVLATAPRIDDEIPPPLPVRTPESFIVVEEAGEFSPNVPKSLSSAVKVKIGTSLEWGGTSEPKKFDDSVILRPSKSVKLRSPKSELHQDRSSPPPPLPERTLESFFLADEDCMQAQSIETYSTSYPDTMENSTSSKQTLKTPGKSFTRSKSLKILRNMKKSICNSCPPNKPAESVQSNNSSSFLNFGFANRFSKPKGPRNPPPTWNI
For assay [12], the target named is T2, Tyrosine-protein phosphatase non-receptor type 7. Briefly: inhibitors of human HePTP phosphatase, […], biochemical, absorbance, leukemia target (AID 521). It is filed as functional.
Assay [13] concerns BJ. Briefly: cytotoxicity toward Ras-transformed BJeLR fibroblasts, dose response, cell-based, alamar blue fluorescence, cherrypicked samples (AID 2631).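 Note: confirmatory dose-response assay in RAS-dependent BJ fibroblasts engineered with TERT, LT and ST, with cytotoxicity read by fluorescence.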 Format: functional. The settings on record: Homo sapiens. On the technique in general: The colour change of resazurin is a common sign of viable cells or microbes.
In assay [14] the target is T3, Dual specificity protein phosphatase 3. Briefly: VHR1 phosphatase inhibitors, biochemical (AID 1878).
In assay [15] the target is T5, Dual specificity protein phosphatase 6 (Rattus norvegicus, UniProt Q64346).
T5 sequence (Q64346 whole entry): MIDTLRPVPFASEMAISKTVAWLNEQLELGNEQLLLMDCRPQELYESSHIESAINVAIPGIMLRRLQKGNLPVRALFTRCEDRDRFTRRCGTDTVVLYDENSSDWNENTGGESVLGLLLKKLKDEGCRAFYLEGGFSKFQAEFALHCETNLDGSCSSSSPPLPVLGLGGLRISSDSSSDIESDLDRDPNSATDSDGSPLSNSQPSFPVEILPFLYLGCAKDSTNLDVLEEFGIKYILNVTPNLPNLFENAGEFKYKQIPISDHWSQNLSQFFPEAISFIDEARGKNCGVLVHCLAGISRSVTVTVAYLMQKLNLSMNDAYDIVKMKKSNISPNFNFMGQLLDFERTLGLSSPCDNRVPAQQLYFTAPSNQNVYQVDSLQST
Nature of the assay: MKP-3 phosphatase inhibitors, primary screen, biochemical, rat enzyme, in vitro (AID 425).

For assay [16], the target named is T4, Tyrosine-protein phosphatase non-receptor type 22. Format: functional. The source holds these as a separate data set.
Assay [17] can be described thus: cytotoxicity toward DRD oncogenic fibroblasts, dose response, cell-based, non-viral oncogenic, luminescence (AID 1934). Format: functional. The settings on record: Homo sapiens.

Active and inactive are the calls of the source.

CAAX prenyl protease 1, sequence (P47154 whole entry): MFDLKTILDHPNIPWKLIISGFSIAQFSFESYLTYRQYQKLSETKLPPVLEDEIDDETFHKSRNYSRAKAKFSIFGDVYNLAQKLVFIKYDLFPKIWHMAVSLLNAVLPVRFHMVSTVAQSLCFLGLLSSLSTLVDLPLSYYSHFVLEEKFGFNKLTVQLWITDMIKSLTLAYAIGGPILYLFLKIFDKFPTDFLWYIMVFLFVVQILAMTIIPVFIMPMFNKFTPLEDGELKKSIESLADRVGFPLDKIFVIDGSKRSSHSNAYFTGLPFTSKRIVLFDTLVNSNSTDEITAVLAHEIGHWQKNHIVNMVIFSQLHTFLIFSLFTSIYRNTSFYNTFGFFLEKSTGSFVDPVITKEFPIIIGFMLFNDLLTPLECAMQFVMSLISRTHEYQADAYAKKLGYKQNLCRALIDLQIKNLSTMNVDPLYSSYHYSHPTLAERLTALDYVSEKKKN
CAAX prenyl protease 2, sequence (Q03530 whole entry): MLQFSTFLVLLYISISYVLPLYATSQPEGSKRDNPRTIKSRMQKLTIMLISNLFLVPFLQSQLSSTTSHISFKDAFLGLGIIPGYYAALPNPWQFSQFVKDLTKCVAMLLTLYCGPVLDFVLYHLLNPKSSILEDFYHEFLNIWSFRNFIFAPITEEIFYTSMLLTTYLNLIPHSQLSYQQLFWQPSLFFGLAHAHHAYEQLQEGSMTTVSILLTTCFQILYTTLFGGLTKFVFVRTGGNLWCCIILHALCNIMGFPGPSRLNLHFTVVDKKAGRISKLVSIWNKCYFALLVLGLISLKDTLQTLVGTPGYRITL

For `COc1ccc(N2CCN(C(=O)c3cc(-c4cccs4)nc4ccccc34)CC2)cc1`, the concentration at half-maximal activity (AC50) (usually the concentration giving half of the maximal activity seen) at CAAX prenyl protease 1 was 47.6 µM (active); on CAAX prenyl protease 2, 4.06 µM (active).

Turning to `CCCCOc1ccc(CC2C(=O)N(C)C(=O)N(C)C2=O)cc1`, the AC50 in [1] is 12.5 µM (active); in assay [2], 1.76 µM (active).

Consider `Cc1cc(C(=O)NC2CCCc3c2cnn3-c2ccccc2F)[nH]n1` (stereo unspecified), for which the IC50 (on Tumor necrosis factor; in [3]; with HEK293; in assay [4]) was > 20 µM (inactive) each time.

As for `O=C(c1cccs1)c1no[n+]([O-])c1C(=O)c1cccs1`, the IC50 (usually the concentration that gives 50% inhibition) was 4.5 µM (active) in assay [5]; < 0.98 µM (inactive) in assay [8]; 2.39 µM (active) in assay [11]; > 100 µM (not active) in assay [12]; 7.48 µM (active) in assay [14]; 141 µM (not active) in assay [15]. The IC50 in [16] was < 1.24 µM (active). Besides, the EC50 (in general, the concentration that produces a half-maximal response) in the assay with BJ [6] was 7.28 µM (inconclusive); in the assay with BJ [7], 3.58 µM (active); in the assay with BJ [10] it was 0.803 µM (active); with BJ [13], 3.9 µM (inconclusive); in [17], 2.78 µM (inconclusive). Also, the AC50 in [9] is 3.5 µM (active).

The values above are taken from ChEMBL document CHEMBL1201862, “PubChem BioAssay data set” (2004).
